Laboratory results as given in PubChem BioAssay AID328 (DTP/NCI, 2004).
Values joined by “and” are separate entries in the source; they are usually repeats but may differ in a detail not shown here. Equal values may be shown once. Toxic doses and inconclusive results are not listed. Non-standard residues stand in square brackets, D forms with d. Residues, ends and D or L forms follow the SMILES beside them. *: point of attachment. NMeY = CN[CH](Cc1ccc(O)cc1)C(=O)O; Bn = c1ccc(C*)cc1

System: BDF1 mice, P388 leukemia ip, median survival T/C
Experiment: NCI In Vivo Anticancer Drug Screen. Data for tumor model P388 Leukemia (intraperitoneal) in B6D2F1 (BDF1) mice
Conditions: endpoint: median survival time, higher = longer survival
Experimental: The antitumor activity of compounds was measured in mice bearing transplantable tumors. Survival or tumor size were measured and the results are expressed as the measurement made in the treated group (T) divided by the measurement made in the vehicle treated control group (C). The tumor model used in this assay is P388 Leukemia (intraperitoneal) in B6D2F1 (BDF1) mice

[1] = dose: 100.0 mg/kg/injection, schedule: Q01DX009 (ip), vehicle: saline
[2] = dose: 100.0 mg/kg/injection, schedule: Q04DX003 (ip), vehicle: saline with Tween-80
[3] = dose: 25.0 mg/kg/injection, schedule: Q01DX009 (ip), vehicle: saline with Tween-80
[4] = dose: 50.0 mg/kg/injection, schedule: Q01DX009 (ip), vehicle: saline with Tween-80
[5] = dose: 1.56 mg/kg/injection, schedule: Q01DX009 (ip), vehicle: saline
[6] = dose: 100.0 mg/kg/injection, schedule: Q01DX009 (ip), vehicle: Klucel (hydroxypropylcellulose) (HPC)
[7] = dose: 100.0 mg/kg/injection, schedule: Q04DX003 (ip), vehicle: Klucel (hydroxypropylcellulose) (HPC)
[8] = dose: 200.0 mg/kg/injection, schedule: Q01DX009 (ip), vehicle: Klucel (hydroxypropylcellulose) (HPC)
[9] = dose: 200.0 mg/kg/injection, schedule: Q04DX003 (ip), vehicle: Klucel (hydroxypropylcellulose) (HPC)
[10] = dose: 400.0 mg/kg/injection, schedule: Q01DX009 (ip), vehicle: Klucel (hydroxypropylcellulose) (HPC)
[11] = dose: 400.0 mg/kg/injection, schedule: Q04DX003 (ip), vehicle: Klucel (hydroxypropylcellulose) (HPC)
[12] = dose: 100.0 mg/kg/injection, schedule: Q01DX009 (ip), vehicle: saline with Tween-80
[13] = dose: 200.0 mg/kg/injection, schedule: Q01DX009 (ip), vehicle: saline with Tween-80
[14] = dose: 200.0 mg/kg/injection, schedule: Q04DX003 (ip), vehicle: saline with Tween-80

`COc1cc(/C(C)=N\O)ccc1O` was tested, and the T/C (dose: 100.0 mg/kg/injection, schedule: Q01DX001 (ip), vehicle: other) was 100 % of control, the T/C (dose: 200.0 mg/kg/injection, schedule: Q01DX001 (ip), vehicle: other) was 100 % of control and the T/C (dose: 400.0 mg/kg/injection, schedule: Q01DX001 (ip), vehicle: other) was 100 % of control.
For `CNC(Cc1ccc(OCc2ccccc2)cc1)C(=O)NC(CC(C)C)C(=O)OC` (stereo not drawn) (H-[NMeY](Bn)-Leu-OMe; configuration not given here), the T/C (dose: 25.0 mg/kg/injection, schedule: Q01DX009 (ip), vehicle: saline) was 106 % of control, the T/C (dose: 50.0 mg/kg/injection, schedule: Q01DX009 (ip), vehicle: saline) was 99 % of control and the T/C (dose: 50.0 mg/kg/injection, schedule: Q04DX003 (ip), vehicle: saline) was 108 % of control. For the same molecule, the T/C [1] was 92 % of control, the T/C (dose: 100.0 mg/kg/injection, schedule: Q04DX003 (ip), vehicle: saline) was 111 % of control and the T/C (dose: 200.0 mg/kg/injection, schedule: Q01DX009 (ip), vehicle: saline) was 106 % of control. The T/C (dose: 200.0 mg/kg/injection, schedule: Q04DX003 (ip), vehicle: saline) was 106 % of control.
In the case of `CCCOc1ccc(-c2nc(-c3ccc(N=Cc4ccc(N(CCOS(C)(=O)=O)CCOS(C)(=O)=O)cc4C)cc3)cs2)cc1`, the T/C (dose: 25.0 mg/kg/injection, schedule: Q04DX003 (ip), vehicle: saline with Tween-80) was 156 % of control, the T/C (dose: 50.0 mg/kg/injection, schedule: Q04DX003 (ip), vehicle: saline with Tween-80) was 175 % of control and the T/C [2] was 166 % of control.
`OC(CCl)Cc1ccccc1` (stereo not drawn) was tested, and the T/C [3] was 109 % of control and the T/C [4] was 109 % of control.
In the case of `COP1(=O)OCC2OC(n3cnc4c(N)ncnc43)C(O)C2O1` (stereo not drawn), the T/C [1] was 88 % of control.
`NCc1cn(C2OC(CO)C(O)C2O)c2ncnc(N)c12` (stereo not drawn) was tested, and the T/C [5] was 91 % of control and 99 % of control, the T/C (dose: 3.12 mg/kg/injection, schedule: Q01DX009 (ip), vehicle: saline) was 100 % of control and 123 % of control and the T/C (dose: 3.12 mg/kg/injection, schedule: Q04DX003 (ip), vehicle: saline) was 95 % of control. The T/C (dose: 6.25 mg/kg/injection, schedule: Q04DX003 (ip), vehicle: saline) was 91 % of control.
In the case of `Oc1ccc2ccccc2c1N=Nc1ccccc1`, the T/C [6] was 87 % of control, the T/C [7] was 109 % of control and the T/C [8] was 104 % of control. The T/C [9] was 104 % of control, the T/C [10] was 91 % of control and the T/C [11] was 104 % of control.
With `FC(F)(F)c1nc(Cl)nc(Cl)c1Cl` the T/C (dose: 3.12 mg/kg/injection, schedule: Q01DX005 (ip), vehicle: saline) was 105 % of control, the T/C (dose: 6.25 mg/kg/injection, schedule: Q01DX005 (ip), vehicle: saline) was 100 % of control and the T/C (dose: 12.5 mg/kg/injection, schedule: Q01DX005 (ip), vehicle: saline) was 110 % of control.
With `CCCCCCCCCCCC[N+](C)(C)Cc1ccccc1` the T/C (dose: 0.43 mg/kg/injection, schedule: Q04DX003 (ip), vehicle: saline) was 90 % of control, the T/C (dose: 0.78 mg/kg/injection, schedule: Q01DX009 (ip), vehicle: saline) was 109 % of control and the T/C (dose: 0.87 mg/kg/injection, schedule: Q04DX003 (ip), vehicle: saline) was 100 % of control. For the same molecule, the T/C [5] was 109 % of control, the T/C (dose: 1.75 mg/kg/injection, schedule: Q04DX003 (ip), vehicle: saline) was 100 % of control and the T/C (dose: 2.05 mg/kg/injection, schedule: Q01DX009 (ip), vehicle: saline) was 161 % of control. The T/C (dose: 3.5 mg/kg/injection, schedule: Q04DX003 (ip), vehicle: saline) was 109 % of control.
For `O=C1OC(=O)c2c1ccc(Br)c2Br`, the T/C [6] was 100 % of control, the T/C [8] was 90 % of control and the T/C [10] was 90 % of control.
For `COC(=O)C(CSCSC)NC(=O)/C=C\c1ccccc1` (stereo not drawn), the T/C [4] was 100 % of control, the T/C [12] was 104 % of control and the T/C [2] was 95 % of control. For the same molecule, the T/C [13] was 109 % of control, the T/C [14] was 91 % of control and the T/C (dose: 400.0 mg/kg/injection, schedule: Q01DX009 (ip), vehicle: saline with Tween-80) was 90 % of control.
With `CC1(C)COC(c2ccccc2)=N1` the T/C (dose: 100.0 mg/kg/injection, schedule: Q01DX001 (ip), vehicle: saline sonified) was 100 % of control, the T/C (dose: 200.0 mg/kg/injection, schedule: Q01DX001 (ip), vehicle: saline sonified) was 100 % of control and the T/C (dose: 400.0 mg/kg/injection, schedule: Q01DX001 (ip), vehicle: saline sonified) was 110 % of control.
In the case of `NC(=S)N/N=C/c1c[nH]c2ccccc12`, the T/C [7] was 100 % of control, the T/C [9] was 113 % of control and the T/C [11] was 104 % of control.
`COc1ccc(CNc2cc(C(O)CNC(C)(C)C)ccc2O)cc1` (stereo not drawn) was tested, and the T/C (dose: 6.25 mg/kg/injection, schedule: Q01DX009 (ip), vehicle: saline with Tween-80) was 105 % of control, the T/C (dose: 12.5 mg/kg/injection, schedule: Q01DX009 (ip), vehicle: saline with Tween-80) was 102 % of control and the T/C [3] was 114 % of control.
For `CC(C)(C)NC(=S)Nc1ccc2c(c1)nc(-c1ccccc1)c1cc(NC(=S)NC(C)(C)C)ccc12`, the T/C [2] was 111 % of control and the T/C [14] was 100 % of control.
`COC(=O)C(c1ccccc1)C(CC(=O)c1ccccc1)c1ccccc1` (stereo not drawn) was tested, and the T/C (dose: 50.0 mg/kg/injection, schedule: Q01DX009 (ip), vehicle: Klucel (hydroxypropylcellulose) (HPC)) was 86 % of control, the T/C [6] was 89 % of control and 99 % of control and the T/C [8] was 92 % of control and 101 % of control. The T/C [10] was 97 % of control.
In the case of `COc1ccc(CCNC(=S)NCCc2ccc(OC)c(OC)c2)cc1OC`, the T/C (dose: 50.0 mg/kg/injection, schedule: Q01DX001 (ip), vehicle: Klucel (hydroxypropylcellulose) (HPC)) was 100 % of control, the T/C (dose: 100.0 mg/kg/injection, schedule: Q01DX001 (ip), vehicle: Klucel (hydroxypropylcellulose) (HPC)) was 100 % of control and the T/C (dose: 200.0 mg/kg/injection, schedule: Q01DX001 (ip), vehicle: Klucel (hydroxypropylcellulose) (HPC)) was 90 % of control.
For `c1cc(Sc2cccc3nncn23)n2cnnc2c1`, the T/C (dose: 100.0 mg/kg/injection, schedule: Q01DX001 (ip), vehicle: saline with Tween-80) was 103 % of control, the T/C (dose: 200.0 mg/kg/injection, schedule: Q01DX001 (ip), vehicle: saline with Tween-80) was 97 % of control and the T/C (dose: 400.0 mg/kg/injection, schedule: Q01DX001 (ip), vehicle: saline with Tween-80) was 103 % of control.
`O=C1Cc2ccccc21` was tested, and the T/C [12] was 96 % of control, the T/C [2] was 100 % of control and 110 % of control and the T/C (dose: 177.0 mg/kg/injection, schedule: Q04DX003 (ip), vehicle: saline with Tween-80) was 100 % of control. For the same molecule, the T/C [13] was 107 % of control, the T/C [14] was 110 % of control and the T/C (dose: 266.0 mg/kg/injection, schedule: Q04DX003 (ip), vehicle: saline with Tween-80) was 104 % of control and 109 % of control. The T/C (dose: 600.0 mg/kg/injection, schedule: Q04DX003 (ip), vehicle: saline with Tween-80) was 104 % of control and 122 % of control.
`COc1ccc(C=Nc2c(N)[nH]c(=S)[nH]c2=O)cc1` was tested, and the T/C (dose: 100.0 mg/kg/injection, schedule: Q04DX002 (ip), vehicle: saline with Tween-80) was 115 % of control and 117 % of control and the T/C (dose: 200.0 mg/kg/injection, schedule: Q04DX002 (ip), vehicle: saline with Tween-80) was 105 % of control and 117 % of control.
With `CC(=O)c1ccc2ccccc2c1OC(=O)c1ccncc1` the T/C (dose: 12.5 mg/kg/injection, schedule: Q01DX009 (ip), vehicle: other) was 99 % of control, the T/C (dose: 25.0 mg/kg/injection, schedule: Q01DX009 (ip), vehicle: other) was 98 % of control and the T/C (dose: 50.0 mg/kg/injection, schedule: Q01DX009 (ip), vehicle: other) was 107 % of control. The T/C (dose: 100.0 mg/kg/injection, schedule: Q01DX009 (ip), vehicle: other) was 118 % of control and the T/C (dose: 200.0 mg/kg/injection, schedule: Q01DX009 (ip), vehicle: other) was 107 % of control.
For `CCC1c2ccc3cc(OC)ccc3c2C(=O)CC1C(=O)O` (stereo not drawn), the T/C (dose: 100.0 mg/kg/injection, schedule: Q04DX003 (sc), vehicle: steriod suspending solution) was 113 % of control, the T/C (dose: 200.0 mg/kg/injection, schedule: Q04DX003 (sc), vehicle: steriod suspending solution) was 100 % of control and the T/C (dose: 400.0 mg/kg/injection, schedule: Q04DX003 (sc), vehicle: steriod suspending solution) was 95 % of control.
In the case of `COc1ccc(/C=C/C(=O)c2ccc(Cl)cc2)c(OC)c1`, the T/C [3] was 95 % of control, the T/C [4] was 100 % of control and the T/C [12] was 109 % of control. The T/C [2] was 109 % of control, the T/C [13] was 100 % of control and the T/C [14] was 95 % of control. The T/C (dose: 400.0 mg/kg/injection, schedule: Q04DX003 (ip), vehicle: saline with Tween-80) was 90 % of control.
For `CCCCCC1c2c(cc(C)[nH]c2=O)OC(O)C1CCCC` (stereo not drawn), the T/C [4] was 93 % of control, the T/C [12] was 90 % of control and the T/C [13] was 94 % of control.
